Legend:
Experiment in all cases: Test D pre-/postemergence plant response
Format in all cases: in vivo
[1] = tested on: spanishneedles (Bidens bipinnata); settings: Postemergence
Summary of the method: (§1)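 Ratings come from greenhouse-grown weeds in loam and sand treated pre- or postemergence (postemergence height 2 to 18 cm). Evaluation after 14–21 days, visual, relative to controls, on a 0–100 control scale.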

[2] = tested on: Surinam grass (Brachiaria decumbens); settings: Postemergence
Summary of the method: as §1

[3] = tested on: goosegrass (Eleusine indica); settings: Postemergence
Summary of the method: as §1

[4] = tested on: signalgrass (broadleaf signalgrass, Brachiaria platyphylla); settings: Postemergence
Summary of the method: as §1

kochia (Kochia scoparia) = settings: Postemergence
Summary of the method: as §1

[5] = tested on: sowthistle (common sowthistle, Sonchus oleraceous); settings: Postemergence
Summary of the method: as §1

[6] = tested on: dallisgrass (Paspalum dilatatum); settings: Postemergence
Summary of the method: as §1

[7] = tested on: chickweed (common chickweed, Stellaria media); settings: Postemergence
Summary of the method: as §1

[8] = tested on: green foxtail (Setaria viridis); settings: Postemergence
Summary of the method: as §1

[9] = tested on: dayflower (Virginia (VA) dayflower, Commelina virginica); settings: Postemergence
Summary of the method: as §1

[10] = tested on: itchgrass (Rottboellia cochinchinensis); settings: Postemergence
Summary of the method: as §1

[11] = tested on: Russian thistle (Salsola kali); settings: Postemergence
Summary of the method: as §1

[12] = tested on: mallow (common mallow, Malva sylvestris); settings: Postemergence
Summary of the method: as §1

[13] = tested on: bermudagrass (Cynodon dactylon); settings: Postemergence, scale 0 to 100 (0 no effect, 100 complete control)
Summary of the method: as §1

[14] = tested on: bluegrass (annual bluegrass, Poa annua); settings: Postemergence, scale 0 to 100 (0 no effect, 100 complete control)
Summary of the method: as §1

[15] = tested on: barnyardgrass (Echinochloa crus-galli); settings: Postemergence, scale 0 to 100 (0 no effect, 100 complete control)
Summary of the method: as §1

[16] = tested on: johnsongrass (Sorghum halepense); settings: Postemergence
Summary of the method: as §1

[17] = tested on: purslane (common purslane, Portulaca oleracea); settings: Postemergence
Summary of the method: as §1

[18] = 62 g ai/ha, scale 0 to 100 (0 no effect, 100 complete control)
[19] = 125 g ai/ha, scale 0 to 100 (0 no effect, 100 complete control)
[20] = 250 g ai/ha, scale 0 to 100 (0 no effect, 100 complete control)

COCCCn1c(-c2cccc(F)c2)ncc(C(=O)C2=C(O)C3CCC(C3)C2=O)c1=O (stereo not drawn) [Compound 238]
Plant response rating, Spanishneedles ([1]; 31 g ai/ha, scale 0 to 100): 65 | Plant response rating, Spanishneedles [1, 18]: 70 | Plant response rating, Spanishneedles [1, 19]: 70 | Plant response rating, Spanishneedles [1, 20]: 75 | Plant response rating, Surinam Grass ([2]; 31 g ai/ha, scale 0 to 100): 75 | Plant response rating, Surinam Grass [2, 18]: 75 | Plant response rating, Surinam Grass [2, 19]: 75 | Plant response rating, Surinam Grass [2, 20]: 85 | Plant response rating, Goosegrass ([3]; 31 g ai/ha, scale 0 to 100): 50 | Plant response rating, Goosegrass [3, 18]: 70 | Plant response rating, Goosegrass [3, 19]: 75 | Plant response rating, Goosegrass [3, 20]: 75 | Plant response rating, Signalgrass ([4]; 31 g ai/ha, scale 0 to 100): 20 | Plant response rating, Signalgrass [4, 18]: 35 | Plant response rating, Signalgrass [4, 19]: 60 | Plant response rating, Signalgrass [4, 20]: 65 | Plant response rating, Kochia (kochia (Kochia scoparia); 31 g ai/ha, scale 0 to 100): 20 | Plant response rating, Kochia (kochia (Kochia scoparia); [18]): 50 | Plant response rating, Kochia (kochia (Kochia scoparia); [19]): 65 | Plant response rating, Kochia (kochia (Kochia scoparia); [20]): 75 | Plant response rating, Sowthistle ([5]; 31 g ai/ha, scale 0 to 100): 95 | Plant response rating, Sowthistle [5, 18]: 95 | Plant response rating, Sowthistle [5, 19]: 95 | Plant response rating, Sowthistle [5, 20]: 95 | Plant response rating, Dallisgrass ([6]; 31 g ai/ha, scale 0 to 100): 10 | Plant response rating, Dallisgrass [6, 18]: 65 | Plant response rating, Dallisgrass [6, 19]: 70 | Plant response rating, Dallisgrass [6, 20]: 75 | Plant response rating, Chickweed ([7]; 31 g ai/ha, scale 0 to 100): 30 | Plant response rating, Chickweed [7, 18]: 35 | Plant response rating, Chickweed [7, 19]: 40 | Plant response rating, Chickweed [7, 20]: 50 | Plant response rating, Foxtail, Green ([8]; 31 g ai/ha, scale 0 to 100): 75 | Plant response rating, Foxtail, Green [8, 18]: 80 | Plant response rating, Foxtail, Green [8, 19]: 80 | Plant response rating, Foxtail, Green [8, 20]: 95 | Plant response rating, Dayflower, VA ([9]; 31 g ai/ha, scale 0 to 100): 35 | Plant response rating, Dayflower, VA [9, 18]: 65 | Plant response rating, Dayflower, VA [9, 19]: 70 | Plant response rating, Dayflower, VA [9, 20]: 75 | Plant response rating, Itchgrass ([10]; 31 g ai/ha, scale 0 to 100): 70 | Plant response rating, Itchgrass [10, 18]: 70 | Plant response rating, Itchgrass [10, 19]: 75 | Plant response rating, Itchgrass [10, 20]: 80 | Plant response rating, Russian Thistle ([11]; 31 g ai/ha, scale 0 to 100): 30 | Plant response rating, Russian Thistle [11, 18]: 40 | Plant response rating, Russian Thistle [11, 19]: 50 | Plant response rating, Russian Thistle [11, 20]: 50 | Plant response rating, Mallow ([12]; 31 g ai/ha, scale 0 to 100): 25 | Plant response rating, Mallow [12, 18]: 35 | Plant response rating, Mallow [12, 19]: 50 | Plant response rating, Mallow [12, 20]: 60 | Plant response rating, Bermudagrass ([13]; 31 g ai/ha): 80 | Plant response rating, Bermudagrass ([13]; 62 g ai/ha): 90 | Plant response rating, Bermudagrass ([13]; 125 g ai/ha): 95 | Plant response rating, Bermudagrass ([13]; 250 g ai/ha): 95 | Plant response rating, Bluegrass ([14]; 31 g ai/ha): 0 | Plant response rating, Bluegrass ([14]; 62 g ai/ha): 5 | Plant response rating, Bluegrass ([14]; 125 g ai/ha): 20 | Plant response rating, Bluegrass ([14]; 250 g ai/ha): 40 | Plant response rating, Barnyardgrass ([15]; 31 g ai/ha): 75 | Plant response rating, Barnyardgrass ([15]; 62 g ai/ha): 80 | Plant response rating, Barnyardgrass ([15]; 125 g ai/ha): 85 | Plant response rating, Barnyardgrass ([15]; 250 g ai/ha): 95 | Plant response rating, Johnsongrass ([16]; 31 g ai/ha, scale 0 to 100): 60 | Plant response rating, Johnsongrass [16, 18]: 70 | Plant response rating, Johnsongrass [16, 19]: 75 | Plant response rating, Johnsongrass [16, 20]: 80 | Plant response rating, Purslane ([17]; 31 g ai/ha, scale 0 to 100): 60 | Plant response rating, Purslane [17, 18]: 60 | Plant response rating, Purslane [17, 19]: 60 | Plant response rating, Purslane [17, 20]: 60

Source: US8952024B2, “Herbicidal pyrimidone derivatives” (E I du Pont de Nemours and Company, priority 2009, dated 2015)
